This note sets out measurements from patent publication US11433090B2, “mTOR-inhibitor-containing medicine for treating or preventing ophthalmic symptoms, disorders, or diseases, and application thereof” (The Doshisha, priority 2017, dated 2022).

The subject of the assay is caspase 3/7. Briefly: Caspase-Glo 3/7 Assay in iFECD stimulated with TGF-β2. It counts as cell-based, human. The note with it: TGF-β2 10 ng/ml, Dunnett-t test, n=5. Here is the method:
The medium was removed from a culture dish in which iFECDs were being cultured, and the cells were supplemented with 1×PBS (−) that was preheated to 37° C., and were washed. This was repeated twice. The cells were supplemented again with 1×PBS (−) and incubated for 3 minutes at 37° C. (5% CO2). After removing the PBS (−), the cells were supplemented with 0.05% Trypsin-EDTA (Nacalai Tesque, 32778-34) and incubated for 5 minutes at 37° C. (5% CO2). The cells were then suspended in a medium, and collected by centrifugation at 1500 rpm for 3 minutes. DMEM (Nacalai Tesque, 08456-36)+10% FBS (Biowest, S1820-500)+1% P/S (Nacalai Tesque, 26252-94) was used as the medium.
Corneal endothelial cells from immortalized FECD patients (lot: iFECD3-5) were seeded on a 96-well plate at a ratio of 4×10^3 cells per well and cultured for 24 hours at 37° C. (5% CO2) (medium: DMEM+10% FBS+1% P/S). After 24 hours, the medium was removed. Each mTOR inhibitor was added to culture the cells for 24 hours (medium: DMEM+2% FBS+1% P/S). After 24 hours, the medium was removed. Media containing 10 ng/ml of Recombinant Human TGF-β2 (Wako, 200-19911) and each mTOR inhibitor were added to culture the cells for 24 hours (medium: DMEM+2% FBS+1% P/S). After 24 hours, the cell morphology and apoptosis were observed under a phase difference microscope.
After observation, measurement of caspase 3/7 activity by Caspase-Glo® 3/7 Assay was carried out with the following procedure.
The medium was discarded to achieve 50 μl per well. 50 μl/well of Caspase Glo® 3/7 Assay Reagent (mixture of Caspase-Glo® 3/7 Assay Buffer and Caspase-Glo® 3/7 Assay Substrate) (Promega, G8091) solution was added so as to achieve 1:1 with the medium. The operations hereafter were carried out while being shaded. A shaker was used to mix the content well for two minutes at about 120 minutes^−1 to then be left for 40 minutes at room temperature. After being left, 80 μl was moved to Assay plate (Corning, 3912, Assay plate 96 well, white polystyrene) and […] was measured using GloMax-Multi Detection System (Promega, E7051).
The following mTOR inhibitors were used in this Example. • Rapamycin (Wako, #53123-88-9) • Everolimus (Cayman Chemical, #11597) • Temsirolimus (Tocris Bioscience, #5264) • PI-103 (Cayman Chemical, #10009209) • CC-223 (Cayman Chemical, #19917) • INK128 (Cayman Chemical, #11811) • AZD8055 (Cayman Chemical, #16978) • KU 0063794 (Tocris Bioscience, #3725)

As for `CO[C@H]1C[C@@H]2CC[C@@H](C)[C@@](O)(O2)C(=O)C(=O)N2CCCC[C@H]2C(=O)O[C@H]([C@H](C)C[C@@H]2CC[C@@H](OCCO)[C@H](OC)C2)CC(=O)[C@H](C)/C=C(\C)[C@@H](O)[C@@H](OC)C(=O)[C@H](C)C[C@H](C)/C=C/C=C/C=C/1C` [everolimus, Everolimus], the “activity of caspase 3/7 compared to control” value (“activity … compared to control” for short) is given as “significantly suppresses” (0.00001 μM); “significantly suppressed” (0.0001 μM); “significantly suppressed” (0.001 μM); “significantly suppressed” (0.01 μM); “significantly suppressed” (0.1 μM).

For `CO[C@H]1CC[C@H](N2C(=O)CNc3ncc(-c4ccc(C(C)(C)O)nc4)nc32)CC1` [CC-223], the “activity … compared to control” value (0.001 μM) is “significantly suppressed”, the “activity … compared to control” value (0.01 μM) is given as “significantly suppressed”, the “activity … compared to control” value (0.1 μM) is “significantly suppressed” and the “activity … compared to control” value (1 μM) is reported as “significantly suppressed”.

`CO[C@H]1C[C@@H]2CC[C@@H](C)[C@@](O)(O2)C(=O)C(=O)N2CCCC[C@H]2C(=O)O[C@H]([C@H](C)C[C@@H]2CC[C@@H](OC(=O)C(C)(CO)CO)[C@H](OC)C2)CC(=O)[C@H](C)/C=C(\C)[C@@H](O)[C@@H](OC)C(=O)[C@H](C)C[C@H](C)/C=C/C=C/C=C/1C` [temsirolimus, Temsirolimus]: the “activity … compared to control” value (0.000001 μM) is “significant difference was not found”; the “activity … compared to control” value (0.00001 μM) is given as “significantly suppressed”; the “activity … compared to control” value (0.0001 μM) is recorded as “significantly suppressed”; the “activity … compared to control” value (0.001 μM) was “significantly suppressed”; the “activity … compared to control” value (0.01 μM) is reported as “significantly suppressed”; the “activity … compared to control” value (0.1 μM) is recorded as “significantly suppressed”. Also, the “activity … compared to control” value is listed as “significantly suppressed” (1 μM) and “significantly suppressed” (10 μM).

For `COc1ccc(-c2ccc3c(N4CCOCC4)nc(N4C[C@@H](C)O[C@@H](C)C4)nc3n2)cc1CO` [KU 0063794], the “activity … compared to control” value was “significant difference was not found” (0.001 μM), “significant difference was not found” (0.01 μM), “significantly suppressed” (0.1 μM) and “significantly suppressed” (1 μM).

Take `Oc1cccc(-c2nc(N3CCOCC3)c3oc4ncccc4c3n2)c1` [PI-103]: the “activity … compared to control” value is, setting by setting: (0.001 μM) “significantly suppressed”; (0.01 μM) “significantly suppressed”; (0.1 μM) “significantly suppressed”; (1 μM) “significant difference was not found”.

`CC(C)n1nc(-c2ccc3oc(N)nc3c2)c2c(N)ncnc21` [INK128]: the “activity … compared to control” value was “significantly suppressed” (0.001 μM), “significantly suppressed” (0.01 μM), “significantly suppressed” (0.1 μM) and “significantly suppressed” (1 μM).

For the molecule `COc1ccc(-c2ccc3c(N4CCOC[C@@H]4C)nc(N4CCOC[C@@H]4C)nc3n2)cc1CO` [AZD8055], the “activity … compared to control” value runs as follows: (0.01 μM) “significantly suppressed”; (0.1 μM) “significantly suppressed”; (1 μM) “significantly suppressed”.
